The source made the active and inactive calls. The rule behind the calls is not given here.
System: CCRIS mutagenicity, Ames/micronucleus/aberration tests
Assay: CCRIS mutagenicity studies
Conditions: Test System: AMES SALMONELLA TYPHIMURIUM

CN(C)N=Nc1ccc(Cl)cc1
mutagenic call (Strain/Indicator: G46, Metabolic Activation: RAT, LIVER, S-9, PHENOBARBITAL, Method: STANDARD PLATE): active; positive
mutagenic call (Strain/Indicator: TA92, Metabolic Activation: MOUSE, LIVER, S-9, POLYCHLORINATED BIPHENYLS, Method: PREINCUBATION): inactive; negative
mutagenic call (Strain/Indicator: TA92, Metabolic Activation: MOUSE, LIVER, S-9, POLYCHLORINATED BIPHENYLS, Method: STANDARD PLATE): inactive; negative
mutagenic call (Strain/Indicator: TA92, Metabolic Activation: NONE, Method: STANDARD PLATE): inactive; negative
mutagenic call (Strain/Indicator: TA97, Metabolic Activation: MOUSE, LIVER, S-9, POLYCHLORINATED BIPHENYLS, Method: PREINCUBATION): active; positive
mutagenic call (Strain/Indicator: TA97, Metabolic Activation: MOUSE, LIVER, S-9, POLYCHLORINATED BIPHENYLS, Method: STANDARD PLATE): active; positive
mutagenic call (Strain/Indicator: TA97, Metabolic Activation: NONE, Method: STANDARD PLATE): inactive; negative
mutagenic call (Strain/Indicator: TA98, Metabolic Activation: MOUSE, LIVER, S-9, POLYCHLORINATED BIPHENYLS, Method: PREINCUBATION): active; positive
mutagenic call (Strain/Indicator: TA98, Metabolic Activation: MOUSE, LIVER, S-9, POLYCHLORINATED BIPHENYLS, Method: STANDARD PLATE): active; positive
mutagenic call (Strain/Indicator: TA98, Metabolic Activation: NONE, Method: STANDARD PLATE): active; positive
mutagenic call (Strain/Indicator: TA100, Metabolic Activation: MOUSE, LIVER, S-9, POLYCHLORINATED BIPHENYLS, Method: PREINCUBATION): active; positive
mutagenic call (Strain/Indicator: TA100, Metabolic Activation: MOUSE, LIVER, S-9, POLYCHLORINATED BIPHENYLS, Method: STANDARD PLATE): inactive; negative
mutagenic call (Strain/Indicator: TA100, Metabolic Activation: NONE, Method: STANDARD PLATE): inactive; negative
mutagenic call (Strain/Indicator: TA1535, Metabolic Activation: MOUSE, LIVER, S-9, POLYCHLORINATED BIPHENYLS, Method: PREINCUBATION): active; positive
mutagenic call (Strain/Indicator: TA1535, Metabolic Activation: MOUSE, LIVER, S-9, POLYCHLORINATED BIPHENYLS, Method: STANDARD PLATE): inactive; negative
mutagenic call (Strain/Indicator: TA1535, Metabolic Activation: NONE, Method: STANDARD PLATE): inactive; negative
mutagenic call (Strain/Indicator: TA1537, Metabolic Activation: MOUSE, LIVER, S-9, POLYCHLORINATED BIPHENYLS, Method: PREINCUBATION): active; positive
mutagenic call (Strain/Indicator: TA1537, Metabolic Activation: MOUSE, LIVER, S-9, POLYCHLORINATED BIPHENYLS, Method: STANDARD PLATE): active; positive
mutagenic call (Strain/Indicator: TA1537, Metabolic Activation: NONE, Method: STANDARD PLATE): active; positive
mutagenic call (Strain/Indicator: TA1538, Metabolic Activation: MOUSE, LIVER, S-9, POLYCHLORINATED BIPHENYLS, Method: PREINCUBATION): active; positive
mutagenic call (Strain/Indicator: TA1538, Metabolic Activation: MOUSE, LIVER, S-9, POLYCHLORINATED BIPHENYLS, Method: STANDARD PLATE): active; positive
mutagenic call (Strain/Indicator: TA1538, Metabolic Activation: NONE, Method: STANDARD PLATE): inactive; negative

Source: PubChem BioAssay AID1259407 (Chemical Carcinogenesis Research Information System (CCRIS), 2018)
